Assay results as given in patent US12077503B2, “Substituted cyclic amides and their use as herbicides” (FMC CORPORATION, priority 2015, dated 2024).

Experiments:
Format in all cases: in vivo
[1] = tested on: ivy-leaved morning glory (Ipomoea hederacea); assay: Test G Post-Emergence Protocol; settings: Ipomoea, post-emergence, 312 h, read-out: Morningglory, Ivy-leaved damage rating; for pest or weed control at 15.625 g/ha: 15.625 g ai/ha, evaluated after 13 days (100=total damage to plant; 0=no damage to plant); for pest or weed control at 62.5 g/ha: 62.5 g ai/ha; for pest or weed control at 62.5 g/ha / pest or weed control at 250 g/ha: evaluated after 13 days, 100=total damage to plant, 0=no damage to plant; for pest or weed control at 250 g/ha: 250 g ai/ha
Summary of the method: (§1)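 Scores run 0 (no damage) to 100 (total damage) and were taken 13 days after spraying. Plants had been raised in pots for 8 days under glasshouse control (24/16 °C, 14 h photoperiod, 65% humidity) and then treated at 15.625, 62.5 or 250 g/ha.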

[2] = tested on: velvetleaf (Abutilon theophrasti); assay: Test G Post-Emergence Protocol; settings: Abutilon theophrasti, post-emergence, 312 h, read-out: Velvetleaf damage rating; for pest or weed control at 15.625 g/ha: 15.625 g ai/ha, evaluated after 13 days (100=total damage to plant; 0=no damage to plant); for pest or weed control at 62.5 g/ha: 62.5 g ai/ha; for pest or weed control at 62.5 g/ha / pest or weed control at 250 g/ha: evaluated after 13 days, 100=total damage to plant, 0=no damage to plant; for pest or weed control at 250 g/ha: 250 g ai/ha
Summary of the method: as §1

corn (Zea mays) [3] = assay: Test G Post-Emergence Protocol; settings: Zea mays, post-emergence, 312 h, read-out: Corn damage rating; for plant injury at 15.625 g/ha: 15.625 g ai/ha, evaluated after 13 days (100=total damage to plant; 0=no damage to plant); for plant injury at 62.5 g/ha: 62.5 g ai/ha; for plant injury at 62.5 g/ha / plant injury at 250 g/ha: evaluated after 13 days, 100=total damage to plant, 0=no damage to plant; for plant injury at 250 g/ha: 250 g ai/ha
Summary of the method: as §1

[4] = tested on: barnyardgrass (Echinochloa crus-galli); assay: Test G Post-Emergence Protocol; settings: Echinochloa crus-galli, post-emergence, 312 h, read-out: Barnyardgrass damage rating; for pest or weed control at 15.625 g/ha: 15.625 g ai/ha, evaluated after 13 days (100=total damage to plant; 0=no damage to plant); for pest or weed control at 62.5 g/ha: 62.5 g ai/ha; for pest or weed control at 62.5 g/ha / pest or weed control at 250 g/ha: evaluated after 13 days, 100=total damage to plant, 0=no damage to plant; for pest or weed control at 250 g/ha: 250 g ai/ha
Summary of the method: as §1

[5] = tested on: redroot pigweed (Amaranthus retroflexus); assay: Test G Post-Emergence Protocol; settings: Amaranthus retroflexus, post-emergence, 312 h, read-out: Pigweed, Redroot damage rating; for pest or weed control at 15.625 g/ha: 15.625 g ai/ha, evaluated after 13 days (100=total damage to plant; 0=no damage to plant); for pest or weed control at 62.5 g/ha: 62.5 g ai/ha; for pest or weed control at 62.5 g/ha / pest or weed control at 250 g/ha: evaluated after 13 days, 100=total damage to plant, 0=no damage to plant; for pest or weed control at 250 g/ha: 250 g ai/ha
Summary of the method: as §1

[6] = tested on: giant foxtail (Setaria faberi); assay: Test G Post-Emergence Protocol; settings: Setaria faberi, post-emergence, 312 h, read-out: Foxtail, Giant damage rating; for pest or weed control at 15.625 g/ha: 15.625 g ai/ha, evaluated after 13 days (100=total damage to plant; 0=no damage to plant); for pest or weed control at 62.5 g/ha: 62.5 g ai/ha, evaluated after 13 days, 100=total damage to plant, 0=no damage to plant
Summary of the method: as §1

[7] = tested on: ivy-leaved morning glory (Ipomoea hederacea); assay: Test G Pre-Emergence Protocol; settings: Ipomoea, pre-emergence, 312 h, evaluated after 13 days; for pest or weed control at 15.625 g/ha: 15.625 g ai/ha; for pest or weed control at 15.625 g/ha / pest or weed control at 250 g/ha: read-out: Morningglory, Ivy-leaved damage rating (100=total damage to plant; 0=no damage to plant); for pest or weed control at 62.5 g/ha: 62.5 g ai/ha, 100=total damage to plant, 0=no damage to plant, read-out: Morningglory, Ivy-leaved damage rating; for pest or weed control at 250 g/ha: 250 g ai/ha
Summary of the method: (§2)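 One day after sowing, pots are treated with a spray of test compound formulated in acetone/water 50:50 plus 0.5% Tween 20, giving 15.625, 62.5 or 250 g/ha. Evaluation on a 0–100 damage scale follows 13 days of glasshouse growth.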

[8] = tested on: velvetleaf (Abutilon theophrasti); assay: Test G Pre-Emergence Protocol; settings: Abutilon theophrasti, pre-emergence, 312 h, evaluated after 13 days; for pest or weed control at 15.625 g/ha: 15.625 g ai/ha; for pest or weed control at 15.625 g/ha / pest or weed control at 250 g/ha: read-out: Velvetleaf damage rating (100=total damage to plant; 0=no damage to plant); for pest or weed control at 62.5 g/ha: 62.5 g ai/ha, 100=total damage to plant, 0=no damage to plant, read-out: Velvetleaf damage rating; for pest or weed control at 250 g/ha: 250 g ai/ha
Summary of the method: as §2

corn (Zea mays) [9] = assay: Test G Pre-Emergence Protocol; settings: Zea mays, pre-emergence, 312 h, evaluated after 13 days; for plant injury at 15.625 g/ha: 15.625 g ai/ha; for plant injury at 15.625 g/ha / plant injury at 250 g/ha: read-out: Corn damage rating (100=total damage to plant; 0=no damage to plant); for plant injury at 62.5 g/ha: 62.5 g ai/ha, 100=total damage to plant, 0=no damage to plant, read-out: Corn damage rating; for plant injury at 250 g/ha: 250 g ai/ha
Summary of the method: as §2

[10] = tested on: barnyardgrass (Echinochloa crus-galli); assay: Test G Pre-Emergence Protocol; settings: Echinochloa crus-galli, pre-emergence, 312 h, evaluated after 13 days; for pest or weed control at 15.625 g/ha: 15.625 g ai/ha; for pest or weed control at 15.625 g/ha / pest or weed control at 250 g/ha: read-out: Barnyardgrass damage rating (100=total damage to plant; 0=no damage to plant); for pest or weed control at 62.5 g/ha: 62.5 g ai/ha, 100=total damage to plant, 0=no damage to plant, read-out: Barnyardgrass damage rating; for pest or weed control at 250 g/ha: 250 g ai/ha
Summary of the method: as §2

[11] = tested on: redroot pigweed (Amaranthus retroflexus); assay: Test G Pre-Emergence Protocol; settings: Amaranthus retroflexus, pre-emergence, 312 h, evaluated after 13 days; for pest or weed control at 15.625 g/ha: 15.625 g ai/ha; for pest or weed control at 15.625 g/ha / pest or weed control at 250 g/ha: read-out: Pigweed, Redroot damage rating (100=total damage to plant; 0=no damage to plant); for pest or weed control at 62.5 g/ha: 62.5 g ai/ha, 100=total damage to plant, 0=no damage to plant, read-out: Pigweed, Redroot damage rating; for pest or weed control at 250 g/ha: 250 g ai/ha
Summary of the method: as §2

[12] = tested on: giant foxtail (Setaria faberi); assay: Test G Pre-Emergence Protocol; settings: Setaria faberi, pre-emergence, 312 h, evaluated after 13 days; for pest or weed control at 15.625 g/ha: 15.625 g ai/ha; for pest or weed control at 15.625 g/ha / pest or weed control at 250 g/ha: read-out: Foxtail, Giant damage rating (100=total damage to plant; 0=no damage to plant); for pest or weed control at 62.5 g/ha: 62.5 g ai/ha, 100=total damage to plant, 0=no damage to plant, read-out: Foxtail, Giant damage rating; for pest or weed control at 250 g/ha: 250 g ai/ha
Summary of the method: as §2

CN1C[C@H](c2cc(F)cc(F)c2)[C@@H](C(=O)Nc2cnccc2C(F)(F)F)C1=O (racemic) [Compound 1741]
0%: pest or weed control at 15.625 g/ha [1] | pest or weed control at 15.625 g/ha [2] | pest or weed control at 62.5 g/ha [2] | plant injury at 15.625 g/ha (corn (Zea mays) [3]) | plant injury at 62.5 g/ha (corn (Zea mays) [3]) | plant injury at 250 g/ha (corn (Zea mays) [3]) | pest or weed control at 15.625 g/ha [4] | pest or weed control at 62.5 g/ha [4] | pest or weed control at 15.625 g/ha [5] | pest or weed control at 62.5 g/ha [5] | pest or weed control at 250 g/ha [5] | pest or weed control at 15.625 g/ha [7] | pest or weed control at 62.5 g/ha [7] | pest or weed control at 250 g/ha [7] | pest or weed control at 15.625 g/ha [8] | plant injury at 15.625 g/ha (corn (Zea mays) [9]) | pest or weed control at 15.625 g/ha [10] | pest or weed control at 15.625 g/ha [12]
40%: pest or weed control at 62.5 g/ha [10]
70%: pest or weed control at 250 g/ha [4] | pest or weed control at 250 g/ha [10]
80%: pest or weed control at 62.5 g/ha [6]
90%: pest or weed control at 62.5 g/ha [12] | pest or weed control at 250 g/ha [12]
60%: pest or weed control at 250 g/ha [8]
10%: pest or weed control at 250 g/ha [1] | pest or weed control at 250 g/ha [2] | plant injury at 62.5 g/ha (corn (Zea mays) [9]) | pest or weed control at 15.625 g/ha [11]
50%: pest or weed control at 15.625 g/ha [6]
30%: pest or weed control at 62.5 g/ha [1] | pest or weed control at 62.5 g/ha [8] | plant injury at 250 g/ha (corn (Zea mays) [9]) | pest or weed control at 250 g/ha [11]
20%: pest or weed control at 62.5 g/ha [11]

CN1C[C@@H](c2cccc(I)c2)[C@H](C(=O)Nc2cccc(F)c2F)C1=O (racemic) [Compound 1754]
20%: pest or weed control at 62.5 g/ha [11]
90%: pest or weed control at 250 g/ha [10] | pest or weed control at 62.5 g/ha [12] | pest or weed control at 250 g/ha [12]
70%: pest or weed control at 62.5 g/ha [1] | pest or weed control at 250 g/ha [1] | plant injury at 250 g/ha (corn (Zea mays) [3]) | pest or weed control at 62.5 g/ha [4] | pest or weed control at 250 g/ha [5]
40%: pest or weed control at 62.5 g/ha [5]
10%: pest or weed control at 15.625 g/ha [2] | plant injury at 15.625 g/ha (corn (Zea mays) [3]) | pest or weed control at 250 g/ha [7] | pest or weed control at 15.625 g/ha [8] | pest or weed control at 15.625 g/ha [11]
0%: pest or weed control at 15.625 g/ha [5] | pest or weed control at 15.625 g/ha [7] | pest or weed control at 62.5 g/ha [7] | pest or weed control at 62.5 g/ha [8] | plant injury at 15.625 g/ha (corn (Zea mays) [9]) | plant injury at 62.5 g/ha (corn (Zea mays) [9])
30%: pest or weed control at 15.625 g/ha [1] | pest or weed control at 62.5 g/ha [2] | pest or weed control at 15.625 g/ha [4] | pest or weed control at 250 g/ha [8]
60%: pest or weed control at 250 g/ha [2] | plant injury at 62.5 g/ha (corn (Zea mays) [3]) | pest or weed control at 15.625 g/ha [6] | pest or weed control at 15.625 g/ha [10] | pest or weed control at 250 g/ha [11]
80%: pest or weed control at 250 g/ha [4] | pest or weed control at 62.5 g/ha [6] | plant injury at 250 g/ha (corn (Zea mays) [9]) | pest or weed control at 62.5 g/ha [10] | pest or weed control at 15.625 g/ha [12]
